In brackets after ≈: the same amount, converted by molar mass.
How the values were obtained:
Assay in all cases: Bactericidal effect on N. gonorrhoeae strains
Format in all cases: cell-based
N. gonorrhoeae L 1001 = conditions: Neisseria gonorrhoeae, L1001, clinical isolate
N. gonorrhoeae L 1601 = conditions: Neisseria gonorrhoeae, L1601, clinical isolate, penicillin-resistant
[1] = test system: N. gonorrhoeae L 1007 (CTC 6820); conditions: Neisseria gonorrhoeae
N. gonorrhoeae L 1596 = conditions: Neisseria gonorrhoeae, L1596, clinical isolate, spectinomycin-resistant
N. gonorrhoeae L 1605 = conditions: Neisseria gonorrhoeae, L1605, clinical isolate, penicillin-resistant
N. gonorrhoeae L 1004 = conditions: Neisseria gonorrhoeae, L1004, clinical isolate
[2] = 24 h, 99.9% of initial inoculum killed

CN[C@@H]1[C@H](O)[C@H](NC)[C@H]2O[C@@]3(O)C(=O)C[C@@H](C)O[C@H]3O[C@@H]2[C@H]1O [Spectinomycin] showed an MBC (N. gonorrhoeae L 1001; [2]) of 32 µg/mL (≈ 96.3 µM), an MIC (N. gonorrhoeae L 1001; 48 h) of 16 µg/mL (≈ 48.1 µM) and an MBC (N. gonorrhoeae L 1601; [2]) of 16 µg/mL (≈ 48.1 µM). It also gave an MIC (N. gonorrhoeae L 1601; 48 h) of 16 µg/mL (≈ 48.1 µM), an MIC ([1]; 48 h) of 16 µg/mL (≈ 48.1 µM) and an MBC [1, 2] of 16 µg/mL (≈ 48.1 µM). It also gave an MBC (N. gonorrhoeae L 1596; [2]) greater than 128 µg/mL, an MIC (N. gonorrhoeae L 1596; 48 h) greater than 128 µg/mL and an MBC (N. gonorrhoeae L 1605; [2]) of 32 µg/mL (≈ 96.3 µM). For the same compound, the MIC (N. gonorrhoeae L 1605; 48 h) was 32 µg/mL (≈ 96.3 µM), the MBC (N. gonorrhoeae L 1004; [2]) was 32 µg/mL (≈ 96.3 µM) and the MIC (N. gonorrhoeae L 1004; 48 h) was 16 µg/mL (≈ 48.1 µM).
